# Experimental data as given in publication PMC10504561 (Plant Communications, 2023).
# What was measured:
# Test in all cases: LC-DAD of product
# Assay type in all cases: biochemical
# Settings in all cases: S-adenosyl-L-methionine co-substrate, pH 7.5, 28 °C, 2 h
# Gmγ-TMT3 = molecular target: T1, Gmγ-TMT3 (Glycine max, UniProt A0A4D6BMW5)
# T1 sequence (A0A4D6BMW5 1-302): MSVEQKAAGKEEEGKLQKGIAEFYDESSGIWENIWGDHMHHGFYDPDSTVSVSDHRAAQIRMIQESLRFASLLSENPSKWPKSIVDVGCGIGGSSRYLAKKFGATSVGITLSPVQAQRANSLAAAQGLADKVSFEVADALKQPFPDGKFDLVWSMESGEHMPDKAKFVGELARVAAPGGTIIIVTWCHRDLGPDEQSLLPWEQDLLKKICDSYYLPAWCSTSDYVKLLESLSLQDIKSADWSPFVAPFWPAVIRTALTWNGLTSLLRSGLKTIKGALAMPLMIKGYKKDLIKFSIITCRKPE
# Gmγ-TMT2 = molecular target: T2, Gmγ-TMT2 (Glycine max, UniProt Q56GA2)
# T2 sequence (Q56GA2 51-350): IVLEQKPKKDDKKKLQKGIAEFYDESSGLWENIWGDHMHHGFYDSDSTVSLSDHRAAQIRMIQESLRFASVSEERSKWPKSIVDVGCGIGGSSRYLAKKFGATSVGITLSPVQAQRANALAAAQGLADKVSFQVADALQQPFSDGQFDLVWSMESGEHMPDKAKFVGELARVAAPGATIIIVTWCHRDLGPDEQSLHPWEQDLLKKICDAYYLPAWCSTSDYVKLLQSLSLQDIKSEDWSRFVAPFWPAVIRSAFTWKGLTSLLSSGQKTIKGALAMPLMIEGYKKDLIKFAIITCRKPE
# Gmγ-TMT1 = molecular target: T3, Gmγ-TMT1 (Glycine max, UniProt A0A4D6BQA3)
# T3 sequence (A0A4D6BQA3 1-296): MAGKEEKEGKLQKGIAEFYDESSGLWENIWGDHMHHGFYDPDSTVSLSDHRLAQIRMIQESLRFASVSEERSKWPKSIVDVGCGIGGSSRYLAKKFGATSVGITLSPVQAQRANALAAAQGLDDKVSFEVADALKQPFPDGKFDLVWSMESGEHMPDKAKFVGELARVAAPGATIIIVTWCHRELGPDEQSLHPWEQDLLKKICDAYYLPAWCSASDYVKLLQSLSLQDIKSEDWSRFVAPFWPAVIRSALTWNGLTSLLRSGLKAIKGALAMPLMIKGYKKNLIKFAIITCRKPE
structure (smiles),measurement,setting,value
Cc1c(O)cc2c(c1C)O[C@](C)(CCC[C@H](C)CCC[C@H](C)CCCC(C)C)CC2 [γ-T],activity,Gmγ-TMT3,Gmγ-TMT3 had three-fold higher activity toward γ-T than Gmγ-TMT1 and Gmγ-TMT2
same,activity,Gmγ-TMT2,Gmγ-TMT3 had three-fold higher activity toward γ-T than Gmγ-TMT1 and Gmγ-TMT2
same,activity,Gmγ-TMT1,Gmγ-TMT3 had three-fold higher activity toward γ-T than Gmγ-TMT1 and Gmγ-TMT2
